In experiment [1] the target is BRD4 (BDI_K57-E168) (Homo sapiens (Human), UniProt O60885). As to the kind of experiment: TR-FRET bromodomain binding assay, BRD4 BDI. The following applies: mean Ki, calculated from IC50, probe Kd and probe concentration. Here is the method:
(§1) A time-resolved fluorescence resonance energy transfer (TR-FRET) assay was used to determine the affinities of compounds of the Examples listed in Table 1 for each bromodomain of BRD4. His-tagged first (BDI: amino acids K57-E168) and second (BDII: amino acids E352-M457) bromodomains of BRD4 were expressed and purified. An Alexa647-labeled BET-inhibitor was used as the fluorescent probe in the assay.
(§2) Compound dilution series were prepared in DMSO via an approximately 3-fold serial dilution. Compound dilutions were added directly into white, low-volume assay plates (Perkin Elmer Proxiplate 384 Plus#6008280) using a Labcyte Echo in conjunction with Labcyte Access and Thermo Multidrop CombinL robotics. Compounds were then suspended in eight microliters (μL) of assay buffer (20 mM Sodium Phosphate, pH 6.0, 50 mM NaCl, 1 mM Ethylenediaminetetraacetic acid disodium salt dihydrate, 0.01% Triton X-100, 1 mM DL-Dithiothreitol) containing His-tagged bromodomain, Europium-conjugated anti-His antibody (Invitrogen PV5596) and Alexa-647-conjugated probe.
(§3) The final concentration of 1× assay mixture contained 2% DMSO, 12 nM His tagged BRD4 (BDI_K57-E168) and 100 nM probe or 4 nM His tagged BRD4 (BDII_E352-M457) and 30 nM probe, and 1 nM Europium-conjugated anti-His-tag antibody, and compound concentrations in the range of: 49.02 μM-0.61 nM or 0.98 μM-0.15 nM.
(§4) After a one-hour equilibration at room temperature, TR-FRET ratios were determined using an Envision multilabel plate reader (Ex 340, Em 495/520).
(§5) TR-FRET data were normalized to the means of 24 no-compound controls (“high”) and 8 controls containing 1 μM un-labeled probe (“low”). Percent inhibition was plotted as a function of compound concentration and the data were fit with the 4 parameter logistic equation to obtain IC50s. Inhibition constants (Ki) were calculated from the IC50s, probe Kd and probe concentration.

For experiment [2], the target named is BRD4 (BDII_E352-M457) (Homo sapiens (Human), UniProt O60885). Description: TR-FRET bromodomain binding assay, BRD4 BDII. Particulars: mean Ki, calculated from IC50, probe Kd and probe concentration. The method, then: as §1, §2, §3, §4, §5

Usually Ki stands for the equilibrium dissociation constant of an inhibitor or competing ligand from its target.

Turning to `Cc1cc(F)cc(C)c1Oc1ccc(C(C)(C)O)cc1-c1cn(C)c(=O)c2[nH]c(C(=O)NC(C)(C)C(F)(F)F)cc12` [Example 55, 4-[2-(4-fluoro-2,6-dimethylphenoxy)-5-(2-hydroxypropan-2-yl)phenyl]-6-methyl-7-oxo-N-(1,1,1-trifluoro-2-methylpropan-2-yl)-6,7-dihydro-1H-pyrrolo[2,3-c]pyridine-2-carboxamide], the Ki was 4690 nM in experiment [1] and 6.9 nM in experiment [2].

Take `CCNC(=O)c1cc2c(-c3cc(C4(O)CC=CC4)ccc3Oc3c(C)cccc3C)cn(C)c(=O)c2[nH]1` [Example 5, 4-[2-(2,6-dimethylphenoxy)-5-(1-hydroxycyclopent-3-en-1-yl)phenyl]-N-ethyl-6-methyl-7-oxo-6,7-dihydro-1H-pyrrolo[2,3-c]pyridine-2-carboxamide]: the Ki in experiment [1] is 187 nM; in experiment [2] it was 1.6 nM.

Take `Cc1cccc(Cl)c1Oc1ncc(C(C)(C)O)cc1-c1cn(C)c(=O)c2[nH]c(C(=O)NC(C)(C)C)cc12` [Example 37, N-tert-butyl-4-[2-(2-chloro-6-methylphenoxy)-5-(2-hydroxypropan-2-yl)pyridin-3-yl]-6-methyl-7-oxo-6,7-dihydro-1H-pyrrolo[2,3-c]pyridine-2-carboxamide]: the Ki in experiment [1] was 195 nM; in experiment [2], 3.7 nM.

Regarding `CCNC(=O)c1cc2c(-c3cc(C(C)(O)CO)ccc3Oc3c(C)cccc3C(F)(F)F)cn(C)c(=O)c2[nH]1` (stereo not shown) [Example 126, 4-{5-(1,2-dihydroxypropan-2-yl)-2-[2-methyl-6-(trifluoromethyl)phenoxy]phenyl}-N-ethyl-6-methyl-7-oxo-6,7-dihydro-1H-pyrrolo[2,3-c]pyridine-2-carboxamide], the values for the Ki in experiment [1] and in experiment [2] were 1510 nM and 6.3 nM, respectively.

`CCNC(=O)c1cc2c(-c3cc(C(C)(C)O)cnc3-c3ccc(F)cc3F)cn(C)c(=O)c2[nH]1` [Example 89, 4-[2-(2,4-difluorophenyl)-5-(2-hydroxypropan-2-yl)pyridin-3-yl]-N-ethyl-6-methyl-7-oxo-6,7-dihydro-1H-pyrrolo[2,3-c]pyridine-2-carboxamide]: the Ki was 281 nM in experiment [1] and 1.7 nM in experiment [2].

As for `CCNC(=O)c1cc2c(-c3cc(C(C)(C)O)ccc3Oc3c(C)ccc(F)c3C)cn(C)c(=O)c2[nH]1` [Example 104, N-ethyl-4-[2-(3-fluoro-2,6-dimethylphenoxy)-5-(2-hydroxypropan-2-yl)phenyl]-6-methyl-7-oxo-6,7-dihydro-1H-pyrrolo[2,3-c]pyridine-2-carboxamide], the Ki was 375 nM in experiment [1] and 1.2 nM in experiment [2].

In the case of `CCNC(=O)c1cc2c(-c3cc(C(C)(O)CCCO)ccc3Oc3c(C)cc(F)cc3C)cn(C)c(=O)c2[nH]1` (stereo not shown) [Example 128, 4-[5-(2,5-dihydroxypentan-2-yl)-2-(4-fluoro-2,6-dimethylphenoxy)phenyl]-N-ethyl-6-methyl-7-oxo-6,7-dihydro-1H-pyrrolo[2,3-c]pyridine-2-carboxamide], the Ki in experiment [1] is 469 nM; in experiment [2], 1.3 nM.

For the molecule `CCNC(=O)c1cc2c(-c3cc(C(C)(C)O)cnc3Oc3c(C)cccc3Cl)cn(C)c(=O)c2[nH]1` [Example 29, 4-[2-(2-chloro-6-methylphenoxy)-5-(2-hydroxypropan-2-yl)pyridin-3-yl]-N-ethyl-6-methyl-7-oxo-6,7-dihydro-1H-pyrrolo[2,3-c]pyridine-2-carboxamide], the Ki in experiment [1] was 594 nM; in experiment [2], 1.3 nM.

As for `CCNC(=O)c1cc2c(-c3cc(C4(O)CCOCC4)ccc3Oc3c(C)cc(F)cc3C)cn(C)c(=O)c2[nH]1` [Example 129, N-ethyl-4-[2-(4-fluoro-2,6-dimethylphenoxy)-5-(4-hydroxyoxan-4-yl)phenyl]-6-methyl-7-oxo-6,7-dihydro-1H-pyrrolo[2,3-c]pyridine-2-carboxamide], the Ki in experiment [1] was 649 nM; in experiment [2] it was 2.3 nM.

Consider `CCNC(=O)c1cc2c(-c3cc(C(C)(C)O)cnc3Oc3c(C)cc(S(C)(=O)=O)cc3C)cn(C)c(=O)c2[nH]1` [Example 93, N-ethyl-4-{5-(2-hydroxypropan-2-yl)-2-[4-(methanesulfonyl)-2,6-dimethylphenoxy]pyridin-3-yl}-6-methyl-7-oxo-6,7-dihydro-1H-pyrrolo[2,3-c]pyridine-2-carboxamide], for which the Ki is 502 nM in experiment [1] and 10.9 nM in experiment [2].

For the molecule `CCNC(=O)c1cc2c(-c3cc(C(C)(C)O)cnc3Oc3c(C)cc(F)cc3C)cn(C)c(=O)c2[nH]1` [Example 43, N-ethyl-4-[2-(4-fluoro-2,6-dimethylphenoxy)-5-(2-hydroxypropan-2-yl)pyridin-3-yl]-6-methyl-7-oxo-6,7-dihydro-1H-pyrrolo[2,3-c]pyridine-2-carboxamide], the values for the Ki in experiment [1] and in experiment [2] were 525 nM and 5 nM, respectively.

As for `CCNC(=O)c1cc2c(-c3cc(C(C)(C)O)ccc3Oc3c(C)cccc3C(F)(F)F)cn(C)c(=O)c2[nH]1` [Example 28, N-ethyl-4-{5-(2-hydroxypropan-2-yl)-2-[2-methyl-6-(trifluoromethyl)phenoxy]phenyl}-6-methyl-7-oxo-6,7-dihydro-1H-pyrrolo[2,3-c]pyridine-2-carboxamide], the Ki was 1180 nM in experiment [1] and 5.4 nM in experiment [2].

Turning to `Cc1cc(F)cc(C)c1Oc1ccc(C(C)(C)O)cc1-c1cn(C)c(=O)c2[nH]c(C(=O)NC34CC(C3)C4)cc12` [Example 75, N-(bicyclo[1.1.1]pentan-1-yl)-4-[2-(4-fluoro-2,6-dimethylphenoxy)-5-(2-hydroxypropan-2-yl)phenyl]-6-methyl-7-oxo-6,7-dihydro-1H-pyrrolo[2,3-c]pyridine-2-carboxamide], the Ki in experiment [1] is 743 nM; in experiment [2], 2.9 nM.

As to `Cc1cccc(C(F)(F)F)c1Oc1ncc(C(C)(C)O)cc1-c1cn(C)c(=O)c2[nH]c(C(=O)NC3(C)CC3(F)F)cc12` (stereo not shown) [Example 47, N-(2,2-difluoro-1-methylcyclopropyl)-4-{5-(2-hydroxypropan-2-yl)-2-[2-methyl-6-(trifluoromethyl)phenoxy]pyridin-3-yl}-6-methyl-7-oxo-6,7-dihydro-1H-pyrrolo[2,3-c]pyridine-2-carboxamide], the Ki in experiment [1] was 2060 nM; in experiment [2] it was 24.4 nM.

In the case of `CCNC(=O)c1cc2c(-c3cc(C(C)(O)CCO)ccc3Oc3c(C)cccc3C)cn(C)c(=O)c2[nH]1` (stereo not shown) [Example 67, 4-[5-(2,4-dihydroxybutan-2-yl)-2-(2,6-dimethylphenoxy)phenyl]-N-ethyl-6-methyl-7-oxo-6,7-dihydro-1H-pyrrolo[2,3-c]pyridine-2-carboxamide], the Ki in experiment [1] is 259 nM; in experiment [2] it was 1.1 nM.

With `CCNC(=O)c1cc2c(-c3cc(C(C)(O)CCc4ccccc4)cnc3Oc3c(C)cccc3C)cn(C)c(=O)c2[nH]1` (stereo not shown) [Example 21, 4-[2-(2,6-dimethylphenoxy)-5-(2-hydroxy-4-phenylbutan-2-yl)pyridin-3-yl]-N-ethyl-6-methyl-7-oxo-6,7-dihydro-1H-pyrrolo[2,3-c]pyridine-2-carboxamide], the Ki in experiment [1] was 521 nM; in experiment [2], 1.5 nM.

Take `CCNC(=O)c1cc2c(-c3cc(C(C)(C)O)cnc3Oc3c(C)ccc(Cl)c3C)cn(C)c(=O)c2[nH]1` [Example 109, 4-[2-(3-chloro-2,6-dimethylphenoxy)-5-(2-hydroxypropan-2-yl)pyridin-3-yl]-N-ethyl-6-methyl-7-oxo-6,7-dihydro-1H-pyrrolo[2,3-c]pyridine-2-carboxamide]: the figures for the Ki in experiment [1] and in experiment [2] were 169 nM and 1.1 nM, respectively.

With `CCNC(=O)c1cc2c(-c3cc([C@@](C)(O)CO)ccc3Oc3c(C)cccc3C)cn(C)c(=O)c2[nH]1` (single isomer, unassigned) [Example 68], the Ki in experiment [1] was 341 nM; in experiment [2], 2.2 nM.

With `CCNC(=O)c1cc2c(-c3cc(C(C)(O)CO)ccc3Oc3c(C)cccc3C)cn(C)c(=O)c2[nH]1` (stereo not shown) [Example 66, 4-[5-(1,2-dihydroxypropan-2-yl)-2-(2,6-dimethylphenoxy)phenyl]-N-ethyl-6-methyl-7-oxo-6,7-dihydro-1H-pyrrolo[2,3-c]pyridine-2-carboxamide], the figures for the Ki in experiment [1] and in experiment [2] were 289 nM and 1.4 nM, respectively.

Turning to `CCNC(=O)c1cc2c(-c3cc(C(O)(CC)c4ccccc4)cnc3Oc3c(C)cccc3C)cn(C)c(=O)c2[nH]1` (stereo not shown) [Example 7, 4-[2-(2,6-dimethylphenoxy)-5-(1-hydroxy-1-phenylpropyl)pyridin-3-yl]-N-ethyl-6-methyl-7-oxo-6,7-dihydro-1H-pyrrolo[2,3-c]pyridine-2-carboxamide], the Ki in experiment [1] is 632 nM; in experiment [2] it was 4.1 nM.

(Values after patent US10633379B2, “Bromodomain inhibitors” (AbbVie Inc., priority 2016, dated 2020).)
